Measured values from patent publication US10035810B2, “5,6-dihydro-4H-benzo[b]thieno-[2,3-d]azepine derivative” (PULMOCIDE LIMITED, priority 2014, dated 2018).

Key:
RSV B Washington strain = experiment: RSV B-induced CPE in HEp2 cells; format: cell-based; conditions: human respiratory syncytial virus
Experimental: (§1) Assessment of RSV Induced CPE in HEp2 Cells
(§2) HEp2 cells were seeded (10^3/well/50 μL) in 384-well plates (Catalogue number 353962, BD Falcon, Oxford, UK) in […] containing 2 mM L-glutamine and 1 mM sodium pyruvate one day before infection. RSV A2 strain (#0709161v, NCPV, Public Health England, Wiltshire) or RSV B Washington strain (VR-1580, ATCC, Manassas, Va. 20108) virus solutions were prepared in serum free-DMEM with 2 mM L-glutamine and 1 mM sodium pyruvate, and then added (50 μL/well) to achieve a final virus concentration of 1 MOI. Simultaneously Compound (I) (0.5 μL DMSO solution) was added to 100 μL of HEp2 cell culture with virus solution to provide a final DMSO solution of 0.5%. Plates were incubated (37° C./5% CO2) for 5 days for studies using RSV A2 strain or 6 days for those using RSV B strain, and then resazurin sodium salt (5 μL of 0.03% solution; Sigma-Aldrich, Dorset, UK) was added to each well and the plate incubated for a further 6 hr (37° C./5% CO2). The fluorescence of each well [545 nm (excitation)/590 nm (emission)] was determined using a multi-scanner (Clariostar: BMG, Buckinghamshire, UK). The percentage inhibition for each well was calculated and the IC50, IC75 and IC90 values were calculated from the concentration-response curve generated for Compound (I).

RSV A2 strain = experiment: RSV A2-induced CPE in HEp2 cells; format: cell-based; conditions: human respiratory syncytial virus
Experimental: as §1, §2

[1] = tested on: RSV NS-1 gene transcripts; experiment: RSV infection in cotton rats: RSV NS-1 gene transcript in lung (qRT-PCR); format: in vivo, cotton rats (Sigmodon hispidus); conditions: infected cotton rats
Experimental: RSV Infection in Cotton Rats
Male Sigmodon hispidus cotton rats between 6 and 8 weeks of age were infected with hRSV/A/Long (ATCC, Manassas, Va.; 10^5 pfu) in a volume of 0.1 mL of sucrose stabilizing media. Compound (I) was dissolved in 100% DMSO (at 3.3, 10, 33 and 100 mg/mL), then diluted at 1:10 in isotonic saline to achieve 10% DMSO in all treatments. Formulations were then sonicated to produce suspensions. The resulting suspensions were administered intranasally (50 μL) by pipette 4 hr before infection (on day 0), and then on days 1, 2 and 3 post infection. Four days after RSV challenge, the animals were euthanised and the lungs were removed. The left lobe was used for viral titration via plaque assay and the lingular lobe for RSV/A/Long NS-1 qRT-PCR and cytokine qRT-PCR.
Total RNA was also extracted from homogenized lung tissue (RNeasy purification kit; Qiagen) and a sample (1 μg) was used to prepare cDNA using QuantiTect Reverse Transcription Kit (Qiagen). For real-time PCR reactions (RSV NS-1 and RANTES genes) the QuantiFast SYBR® Green PCR Kit (Qiagen) was used in a final volume of 25 μL, with final primer concentrations of 0.5 μM. […] Baseline cycles and cycle threshold (Ct) were calculated by the iQ5 software in the PCR Base Line Subtracted Curve Fit mode. […] The mRNA levels were expressed as the geometric mean±SEM for all animals in a group.

HEp2 cells = experiment: Cell viability: resazurin assay; format: cell-based, human; conditions: incubation with compound
Experimental: Cell Viability: Resazurin Assay
HEp2 cells were seeded in 384-well plates (10^3/well/50 μL; BD Falcon Ref 353962) in FBS DMEM (5%, containing 2 mM L-glutamine and 1 mM sodium pyruvate) one day before experimentation. Serum-free DMEM (50 μL) was added to test wells while for control wells the media was removed and sterile water (100 μL) was added. Compound (I) (0.5 μL DMSO solution) was added to give a final DMSO concentration of 0.5%. Hep2 cells were incubated with each test compound for 5 days (37° C./5% CO2 in 5% FBS) and then resazurin stock solution (5 μL; 0.03%) was added to each well and the plate incubated for a further 6 hr (37° C./5% CO2). The fluorescence of each well at 545 nm (excitation) and 590 nm (emission) was determined using a multi-scanner (Clariostar: BMG Labtech). The percentage loss of cell viability was calculated for each well relative to vehicle (0.5% DMSO) treatment.
Any apparent increase in cell viability associated with test compound treatment relative to vehicle is consequently tabulated as a negative percentage. Where appropriate, a CC50 value was calculated from the concentration-response curve generated for Compound (I).

## Cc1cnc(N2CC3(CCOCC3)C2)c(C(=O)Nc2ccc(C(=O)N3CCc4cc(C(=O)Nc5c(C)cccc5F)sc4-c4ccccc43)cc2)c1 [Compound (I), N-(2-fluoro-6-methylphenyl)-6-(4-(5-methyl-2-(7-oxa-2-azaspiro[3.5]nonan-2-yl)nicotinamido)benzoyl)-5,6-dihydro-4H-benzo[b]thieno[2,3-d]azepine-2-carboxamide]
RSV B Washington strain; HEp-2, 144 h, 1 MOI, 6 days
  IC50: 10.2 nM
RSV B Washington strain; HEp-2, at 1 μg/mL
  inhibition at 1 µg/mL: 72%
RSV A2 strain; HEp-2, 120 h, 1 MOI, 5 days
  IC50: 0.017 nM
RSV A2 strain; HEp-2, at 0.1 μg/mL
  inhibition at 0.1 µg/mL: 100%
[1]
  RSV NS-1 gene transcripts in lung (in words): dose-dependent inhibition of RSV NS-1 gene transcripts
HEp2 cells
  Effect on cell viability (in words): No effect on cell viability
